Values of other authors, collected in patent US8329734B2, “Topical therapy for migraine” (AFGIN Pharma LLC, priority 2009, dated 2012).

Question: With `CNS(=O)(=O)Cc1ccc2[nH]cc(CCN(C)C)c2c1` [Sumatriptan, 3-(2-(dimethylamino)ethyl)-N-methyl-1H-indole-5-methanesulfonamide] as the compound, how does the metabolism (in vivo) read?
Answer: metabolized by the MAO system

Question: With `CNS(=O)(=O)CCc1ccc2[nH]cc(C3CCN(C)CC3)c2c1` [naratriptan] as the compound, how does the oral bioavailability (oral) read?
Answer: ~70%

Question: For `CN(C)CCc1c[nH]c2ccc(Cn3cncn3)cc12` [rizatriptan], which metabolism (in vivo) is on record?
Answer: metabolized by the MAO system

Question: For `CN(C)CCc1c[nH]c2ccc(C[C@H]3COC(=O)N3)cc12` [zolmitriptan], which “crossing of intact blood-brain barrier” value (in vivo) is on record?
Answer: does cross an intact blood-brain barrier

Question: What about the metabolism (in vivo) of the same compound?
Answer: metabolized by the MAO system
